As a reminder, the IC50 is the concentration at which inhibition is half-maximal.

Entries after “also recorded” stand apart in the source; their conditions may differ. Structures can show the parent of a compound that is named as a salt. Where no end group is shown, it is not given here. [ ]: non-standard residue; d: D form.

One series concerns tumor mitochondria. In words: Cytochrome c release from drug-treated isolated tumor mitochondria. The class given is biochemical. As to conditions: 3 hours (FIG. 16D). The method, then:
Tumor cell types were treated with controls or the various Hsp90 antagonists, and cytosolic extracts were harvested at increasing time intervals between 5-30 minutes and analyzed by Western blotting. For experiments in a cell-free system, purified mitochondria (20 μg) were suspended in 500 μl of SB buffer (0.2 M sucrose, 10 mM Tris-MOPS, pH 7.4, 5 mM succinate, 1 mM sodium phosphate, 10 μM EGTA-Tris, and 2 μM rotenone). […] At the end of each incubation reaction, mitochondria and supernatants were separated by centrifugation at 6,000×g for 10 minutes, and analyzed by Western blotting.
(§1) The fluorescence intensity after treatment with 2 mM CaCl2 corresponded to a fully depolarized state. Alternatively, H460 cells were labeled with the fluorescent dye JC-1 (Molecular Probes), and analyzed for changes in red/green (F1-2/F1-1) fluorescence ratio after treatment with the various agents, by multiparametric flow cytometry. Cytochrome c content in pellets or supernatants of drug-treated isolated mitochondria was determined by Western blotting.

Series [1] relates to lung adenocarcinoma H460 cells. In words: Cell viability by MTT, H460. It is filed as cell-based, human. As to conditions: 3 hour exposure. On the procedure:
(§2) Modulation of cell viability was determined by MTT (Kang et al., “Regulation of tumor cell mitochondrial homeostasis by an organelle-specific Hsp90 chaperone network,” Cell, 131:257-270 (2007)). For determination of apoptosis, cells were analyzed for caspase activity (DEVDase activity) and plasma membrane integrity (propidium iodide) using CaspaTag (Intergen, Burlington, Mass.), by multiparametric flow cytometry (Kang et al., “Regulation of tumor cell mitochondrial homeostasis by an organelle-specific Hsp90 chaperone network,” Cell, 131:257-270 (2007)).

Series [2] deals with isolated tumor mitochondria. In words: Inner membrane potential of TMRM-loaded tumor mitochondria. It is filed as biochemical. On the procedure: as §1
Series [3] deals with breast adenocarcinoma SKBr3 cells. In words: Metabolic activity by MTT, SKBr3. The class given is cell-based. As to conditions: 10 μM; by 48 hours and throughout a 96-hours interval. The method, then: as §2
Series [4] has as its system H460 lung adenocarcinoma xenograft tumors. In words: Xenograft tumor growth, H460. It is filed as in vivo, mice. Particulars: i.p.; G4 and 17-AAG 2-3 mg/kg twice daily, G1 30-50 mg/Kg daily, TPP 10 mg/Kg daily. On the procedure:
To create the models used in this example, HL60 (10×10^6) or H460 (4×10^6) cells suspended in sterile PBS (200 μl) were injected subcutaneously into both flanks of 10 week-old CB17 SCID/beige (Taconic Farms) immunocompromised female mice. Alternatively, MDA-MB-231 cells (5×10^6) suspended in 200 μl of 50% Matrigel (BD Biosciences) were used for subcutaneous injection in CB17 SCID/beige mice. When superficial tumors reached volumes of 100-150 mm^3, animals were randomized in two groups (2 tumors/mouse, 3 animals/group), and treated with vehicle (DMSO) or Gamitrinib dissolved in 20% Cremophor EL (Sigma) in PBS by intraperitoneal (i.p.) injection. Gamitrinib-G4 was used as sterile i.p. injections with the following schedules: HL60 xenografts, 2 mg/Kg twice daily; H460 xenografts, 2 mg/kg twice daily for d 0, 2.5 mg/kg twice daily for d 1, 3.0 mg/kg twice daily for the duration of treatment; MDA-MB-231 xenografts, 2 mg/Kg twice daily for d 0-2, 2.5 mg/Kg twice daily for d 3-5, and 3 mg/Kg twice daily throughout the rest of the treatment. 17-AAG was dissolved in 20% Cremophor EL and used as systemic i.p. injections with the same dose-escalating regimen as Gamitrinib-G4 in H460 xenograft studies. Gamitrinib-G1 was used with following schedules: 30 mg/Kg daily (d 0-2), and 50 mg/Kg daily for the rest of treatment. Gamitrinib-TPP was used as i.p. injections at 10 mg/Kg daily throughout the duration of the experiment. Tumor measurements were taken daily with a caliper, and tumor volume was calculated with the formula ([length in millimeters]×[width in millimeters]^2)/2. Mice in the various treatment groups were weighed at the beginning and at the end of each experiment.

For the next series, the system named is TRAP-1 and Hsp90. In words: Fractionation of Raji mitochondrial extracts over Shepherdin-Sepharose or scrambled peptidomimetic-Sepharose. Particulars: coupled to Sepharose beads, Western blotting. It is filed as binding, human. In general terms: A western blot detects proteins with antibodies after separation by electrophoresis.
For series [5], the system named is Ras-transformed NIH3T3 mitochondria. In words: Mitochondrial membrane potential of TMRM-loaded isolated mitochondria. The class given is biochemical. The method, then:
Raji cells were treated with Shepherdin or control scrambled peptidomimetic (100 μM) or 17-AAG (5 μM), loaded with the mitochondrial membrane potential-sensitive fluorescent dye JC-1, and analyzed for changes in green/red fluorescence ratio by flow cytometry. For experiments in a cell-free system, purified mitochondria isolated from primary normal cells, various tumor cells types, or normal mouse organs were suspended in SB buffer. […] For these experiments, TMRM-loaded mitochondria in SB buffer were allowed to reach stable fluorescence, which was set as fully polarized state (maximum membrane potential). The fluorescence intensity after treatment with 2 mM CaCl2 was set as minimum membrane potential (fully depolarized state). Changes in fluorescence intensity after each treatment were plotted as a ratio between maximum and minimum membrane potential.

Series [6] deals with normal human fibroblast cell types (WS-1, HGF, HFF). In words: Cell viability by MTT, normal human fibroblast cell types. Particulars: concentrations comparable to those killing tumor cells. The method, then: Changes in protein expression in the various experiments of siRNA targeting were assessed by Western blotting. For analysis of TRAP-1-directed cytoprotection, primary nontransformed human fibroblasts HFF and WS-1 were transfected with control pcDNA3 or TRAP-1 cDNA by lipofectamine for 24 hours, exposed to increasing concentrations (0-1 μM) of the cell death stimulus staurosporine (STS), and analyzed for cell viability after additional 24 hours incubation by MTT. For analysis of apoptosis, p53+/+ or p53−/−HCT116 cells were treated with control or ANT-GA (100 μM), and analyzed for DEVDase activity (CaspaTag) and propidium iodide staining by simultaneous multiparametric flow cytometry, as described (Dohi et al., J. Clin. Invest. 114(8):1117-27, (2004); Plescia et al., Cancer Cell, 7:457-468, (2005)).

As for `CCNC(=O)c1noc(-c2cc(C(C)C)c(O)cc2O)c1-c1ccc(CN2CCOCC2)cc1` [NVP-AUY922], the “cytochrome c release from mitochondria” value in the series on tumor mitochondria is reported as “had no effect on cytochrome c release”.

With `CO[C@H]1/C=C\C=C(/C)C(=O)NC2=CC(=O)C(NCCCNC(=O)CCCN3C(=O)CC(SC[C@H]4CCN5CC[C@H](CSC[C@H]6CCN7CC[C@H](CSC[C@H]8CCN9CC[C@H](CO[Si](c%10ccccc%10)(c%10ccccc%10)C(C)(C)C)N=C9N8)N=C7N6)N=C5N4)C3=O)=C(C[C@@H](C)C[C@H](OC)[C@H](O)[C@@H](C)/C=C(\C)[C@@H]1OC(N)=O)C2=O.F[P-](F)(F)(F)(F)F.F[P-](F)(F)(F)(F)F.F[P-](F)(F)(F)(F)F` (some centres unmarked) [Gamitrinib-G3], the cell viability entry in series [1] was “complete loss of cell viability”. Besides, the IC50 in series [1] (read-out: IC50, loss of cell viability) is roughly 0.5 µM.

As to `CO[C@H]1/C=C\C=C(/C)C(=O)NC2=CC(=O)C(NCCCNC(=O)CCCN3C(=O)CC(SC[C@H]4CCN5CC[C@H](CSC[C@H]6CCN7CC[C@H](CO[Si](c8ccccc8)(c8ccccc8)C(C)(C)C)N=C7N6)N=C5N4)C3=O)=C(C[C@@H](C)C[C@H](OC)[C@H](O)[C@@H](C)/C=C(\C)[C@@H]1OC(N)=O)C2=O` (some centres unmarked) [Gamitrinib-G2], in series [1], the cell viability entry is “had intermediate activity”.

Consider `CO[C@H]1/C=C\C=C(/C)C(=O)NC2=CC(=O)C(NCCCCCC[P+](c3ccccc3)(c3ccccc3)c3ccccc3)=C(C[C@@H](C)C[C@H](OC)[C@H](O)[C@@H](C)/C=C(\C)[C@@H]1OC(N)=O)C2=O` [Gamitrinib-TPP, (4E,6Z,8S,9S,10E,12S,13R,14S,16R)-19-(6-(triphenylphosphonio)hexylamino)-13-hydroxy-8,14-dimethoxy-4,10,12,16-tetramethyl-3,20,22-trioxo-2-azabicyclo[16.3.1]docosa-1(21),4,6,10,18-pentaen-9-yl carbamate hexafluorophosphate], for which, in series [2], the “mitochondrial inner membrane potential” value is “promptly depolarized tumor mitochondria”. For the same compound, the cell viability entry in series [1] is listed as “had intermediate activity”. The metabolic activity result in series [3] is reported as “comparably reduced metabolic activity”. For the same compound, in series [4], the tumor growth entry is on record as “also inhibited lung cancer growth in vivo”.

For the compound `CO[C@H]1/C=C\C=C(/C)C(=O)NC2=CC(=O)C(NCCN(C)C)=C(C[C@@H](C)C[C@H](OC)[C@H](O)[C@@H](C)/C=C(\C)[C@@H]1OC(N)=O)C2=O` [DMAG, 17-(dimethylaminoethylamino)-17-demethoxygeldanamycin], in series [2], the “mitochondrial inner membrane potential” value was “did not affect mitochondrial membrane potential”.

As to `C=CCNc1c(O)cc2c(O)c1C[C@@H](C)C[C@H](OC)[C@H](O)[C@@H](C)/C=C(\C)[C@H](OC(N)=O)[C@@H](OC)/C=C\C=C(/C)C(=O)N2` [IPI-504], the “cytochrome c release from mitochondria” value in the series on tumor mitochondria is reported as “had no effect on cytochrome c release”.

On to “Sheph: Shepherdin lacking the Antennapedia cell-penetrating sequence ([dL][dF][dA][dC]G[dS][dS][dH][dK])”, for which the “association of Hsp90 and TRAP-1 with immobilized peptidomimetic” value with TRAP-1 and Hsp90 is “specific elution of both TRAP-1 and Hsp90; also recorded: Hsp90 and TRAP-1 are bound by Shepherdin-Sepharose”. Moreover, the “membrane potential of mitochondria” value in series [5] is recorded as “induces loss of mitochondrial membrane potential in transformed cells”.

With `COC1=C2C[C@@H](C)C[C@H](OC)[C@H](O)[C@@H](C)/C=C(\C)[C@H](OC(N)=O)[C@@H](OC)/C=C\C=C(/C)C(=O)NC(=CC1=O)C2=O` [GA, geldanamycin], in series [6], the “viability of normal human fibroblast cell types” value is reported as “none of the compounds affected the viability of various normal human fibroblast cell types”.

Take `CC[C@H](C)[C@H](NC(=O)[C@H](CCCCN)NC(=O)[C@@H](NC(=O)[C@H](CCC(N)=O)NC(=O)[C@@H](N)CCCNC(=N)N)[C@@H](C)CC)C(=O)N[C@@H](Cc1c[nH]c2ccccc12)C(=O)N[C@@H](Cc1ccccc1)C(=O)N[C@@H](CCC(N)=O)C(=O)N[C@@H](CC(N)=O)C(=O)N[C@@H](CCCNC(=N)N)C(=O)N[C@@H](CCCNC(=N)N)C(=O)N[C@@H](CCSC)C(=O)N[C@@H](CCCCN)C(=O)N[C@@H](Cc1c[nH]c2ccccc12)C(=O)N[C@@H](CCCCN)C(=O)N[C@@H](CCCCN)C(=O)N[C@@H](CSC1CC(=O)N(CCCC(=O)NCCCNC2=C3C[C@@H](C)C[C@H](OC)[C@H](O)[C@@H](C)/C=C(\C)[C@H](OC(N)=O)[C@@H](OC)/C=C\C=C(/C)C(=O)NC(=CC2=O)C3=O)C1=O)C(N)=O` (some centres unmarked) [ANT-GA]: in series [6], the “viability of normal human fibroblast cell types” value is reported as “none of the compounds affected the viability of various normal human fibroblast cell types”.

For the compound `COc1c(C)cnc(Cn2cnc3c(Cl)nc(N)nc32)c1C` [BIIB021], the “cytochrome c release from mitochondria” value in the series with tumor mitochondria is given as “had no effect on cytochrome c release”.

For `CO[C@H]1/C=C\C=C(/C)C(=O)NC2=CC(=O)C(NCCCNC(=O)CCCN3C(=O)CC(SC[C@H]4CCN5CC[C@H](CO[Si](c6ccccc6)(c6ccccc6)C(C)(C)C)N=C5N4)C3=O)=C(C[C@@H](C)C[C@H](OC)[C@H](O)[C@@H](C)/C=C(\C)[C@@H]1OC(N)=O)C2=O` (stereo partly drawn) [Gamitrinib-G1, (4E,6Z,8S,9S,10E,12S,13R,14S,16R)-19-(3-(4-(3-(((2R,8R)-8-((tert-butyldiphenylsilyloxy)methyl)-2,3,4,6,7,8-hexahydro-1H-pyrimido[1,2-a]pyrimidin-2-yl)methylthio)-2,5-dioxopyrrolidin-1-yl)butanamido)propylamino)-13-hydroxy-8,14-dimethoxy-4,10,12,16-tetramethyl-3,20,22-trioxo-2-azabicyclo[16.3.1]docosa-1(21),4,6,10,18-pentaen-9-yl carbamate, hexafluorophosphate salt], the cell viability entry in series [1] is recorded as “had no effect”. Moreover, the tumor growth result in series [4] is reported as “also inhibited lung cancer growth in vivo”.

Source of the values: US9987294B2, “Mitochondria-targeted anti-tumor agents” (University of Massachusetts, priority 2007, dated 2018).
